US20170143647A1, “INTESTINAL FLORA IMPROVING COMPOSITION CONTAINING ASTAXANTHIN AND ITS USE” (THE DOSHISHA, priority 2013, published 2017)
Entries after “also recorded” stand apart in the source; their conditions may differ.

How the values were obtained:
[1] = Change in body weight of mice fed ordinary or high-fat diet with or without astaxanthin; assay type: in vivo, ICR mice; conditions: 0.02% astaxanthin in ordinary or high-fat diet, weight measured once a week
Description: (§1) The test substance (astaxanthin) was added to an ordinary diet (“Labo MR Stock” manufactured by Nosan Corporation (Nishi-ku, Yokohama)) and a high-fat diet (“HFD-60” Oriental Yeast Co., Ltd. (Itabashi-ku, Tokyo)) so that the content thereof was 0.02%.
(§2) A commercially-available product “AstaReal Oil 50F” (manufactured by Fuji Chemical Industries Co., Ltd.) was used as astaxanthin.
(§3) Twenty 4-week-old ICR mice were respectively kept in different cages, and habituated for 1 week.
(§4) After completion of habituation, the weight of each mouse was measured, and the mice were divided into an ordinary diet group (group C), an ordinary diet+astaxanthin group (group CA), a high-fat diet group (group H), and a high-fat diet+astaxanthin group (group HA) (five mice per group).
The diet was fed to each group from Day 1, and the weight of each mouse was measured once a week.
The ordinary diet was fed once a week, and the high-fat diet was fed every other day (the high-fat diet was returned to room temperature on the day before the feeding).
The mean value of each group was analyzed by Tukey's multiple comparison test.

[2] = test system: Lactobacillus group (lactic acid bacteria); assay: Real-time PCR of fecal DNA, Lactobacillus group; assay type: in vivo, ICR mice
Description: (§5) A change in intestinal flora when a high-fat diet was fed to mice, and the effect of astaxanthin on intestinal flora were determined using a real-time PCR method.
as §1, §2, §3
(§6) After completion of habituation, the weight of each mouse was measured, and the mice were divided into an ordinary diet group (group C), an ordinary diet+astaxanthin group (group CA), a high-fat diet group (group H), and a high-fat diet+astaxanthin group (group HA) (five mice per group). […]
(§7) The DNA solution was 100-fold diluted (Lactobacillus, Streptococcus, Clostridium coccoides, and Clostridium leptum), and the final concentration was adjusted to […] (other targets). […] The primer sequence was analyzed using the method of Matsuki et al. or Endo et al. […]
(§8) Regarding a comparison as to the presence or absence of astaxanthin, the bacterial count change ratio was analyzed by Mann-Whitney's U test (one-sided test).

[3] = test system: Streptococcus group (lactic acid bacteria); assay: Real-time PCR of fecal DNA, Streptococcus group; assay type: in vivo, ICR mice
Description: as §5, §1, §2, §3, §6, §7, §8

[4] = test system: Clostridium coccoides group; assay: Real-time PCR of fecal DNA, Clostridium coccoides group; assay type: in vivo, ICR mice
Description: as §5, §1, §2, §3, §6, §7, §8

Clostridium leptum group = assay: Real-time PCR of fecal DNA, Clostridium leptum group; assay type: in vivo, ICR mice; conditions: group HA vs group H
Description: as §5, §1, §2, §3, §4
(§9) The feces of the mice were collected over 24 hours on the final day of habituation (Day 0). […]
as §7
(§10) The mean value of each group was analyzed by Tukey's multiple comparison test. […]

[5] = test system: bacteria that belong to the genus Bacteroides; assay: Real-time PCR of fecal DNA, genus Bacteroides; assay type: in vivo, ICR mice; conditions: group HA (high-fat diet + astaxanthin), Day 14, FIG. 9
Description: as §5, §1, §2, §3, §4, §9, §7, §10

intestinal flora = assay: Effect of astaxanthin on intestinal flora of mice fed a high-fat diet (overall); assay type: in vivo; conditions: intake of astaxanthin, high-fat diet fed to a mouse
Description: A change in intestinal flora when a high-fat diet was fed to mice, and the effect of astaxanthin on intestinal flora were determined using a real-time PCR method. The test substance (astaxanthin) was added to an ordinary diet (“Labo MR Stock” manufactured by Nosan Corporation (Nishi-ku, Yokohama)) and a high-fat diet (“HFD-60” Oriental Yeast Co., Ltd. (Itabashi-ku, Tokyo)) so that the content thereof was 0.02%. A commercially-available product “[…] Oil […]” (manufactured by Fuji Chemical Industries Co., Ltd.) was used as astaxanthin. Twenty 4-week-old ICR mice were respectively kept in different cages, and habituated for 1 week. After completion of habituation, the weight of each mouse was measured, and the mice were divided into an ordinary diet group (group C), an ordinary diet+astaxanthin group (group CA), a high-fat diet group (group H), and a high-fat diet+astaxanthin group (group HA) (five mice per group). The DNA solution was 100-fold diluted (Lactobacillus, Streptococcus, Clostridium coccoides, and Clostridium leptum), and the final concentration was adjusted to […] (other targets). […] The primer sequence was analyzed using the method of Matsuki et al. or Endo et al. The real-time PCR assay was performed on Bacteroides, Bifidobacterium (bifidobacteria), Prevotella, Lactobacillus, Streptococcus, Clostridium coccoides, and Clostridium leptum.

[6] = taken orally; cited from earlier work
[7] = eight-week treatment; cited from earlier work

For `CC1=C(/C=C/C(C)=C/C=C/C(C)=C/C=C/C=C(C)/C=C/C=C(C)/C=C/C2=C(C)C(=O)C(O)CC2(C)C)C(C)(C)CC(O)C1=O` (stereo not drawn) [astaxanthin, 3,3′-dihydroxy-β,β-carotene-4,4′-dione], the “change in body weight, groups fed astaxanthin (CA, HA) vs groups not fed astaxanthin (C, H)” value [1] was “No significant difference”, the “rate of increase in the bacterial count of the Lactobacillus group” value ([2]; addition of 0.02% astaxanthin to diet, p=0.031) was “increased” and the “bacterial count of the Lactobacillus group” value ([2]; group C vs CA and group H vs HA, FIG. 4) was “increased”. The “rate of increase in bacterial count of the Streptococcus group, between the high-fat diet groups” value ([3]; group H vs HA, p=0.044) was “significant difference”, the “bacterial count of the Streptococcus group” value ([3]; group HA (high-fat diet + astaxanthin), Day 28) was “comparable to those of the ordinary diet group; also recorded: increased” and the “growth of the Clostridium coccoides group” value ([4]; group H vs HA, Day 14 and Day 28, FIG. 7) was “suppressed the growth”. The “rate of increase in the bacterial count of the Clostridium coccoides group” value ([4]; high-fat diet, addition of astaxanthin, p=0.029) was “decreased”, the “bacterial count of the Clostridium leptum group” value (Clostridium leptum group; Day 14, p<0.001) was “temporary increase” and the “bacterial count of the Clostridium leptum group” value (Clostridium leptum group; Day 28) was “no significant difference”. For the same compound, the “bacterial count of bacteria that belong to the genus Bacteroides” value [5] was “did not show such a temporary increase; also recorded: suppressed a temporary increase; also recorded: did not show a significant increase”, the “effect on intestinal flora” value (intestinal flora) was “improves intestinal flora; also recorded: controls the disorder of intestinal flora” and the “astaxanthin absorbed in the small intestine” value [6] was “about 5%”. The “efficacy reported in Non-Patent Literature 1” value [7] was “enhances the antioxidant potential, decreases blood pressure, and improves constipation and a climacteric complaint”.
